Activity and solubility data for four compounds are collected here from ChEMBL document CHEMBL4339226, “Novel Compounds Targeting the RNA-Binding Protein HuR. Structure-Based Design, Synthesis, and Interaction Studies” (ACS Med Chem Lett, 2019).

In series [1] the target is ELAV-like protein 1 (Homo sapiens) (UniProt Q15717). Briefly: Binding affinity to HuR (unknown origin) assessed as absolute STD percentage for ring B moiety by 1H-STD-NMR spectroscopic analysis.
The target is the same in series [2]. Briefly: Binding affinity to HuR (unknown origin) assessed as absolute STD percentage for ring A moiety by 1H-STD-NMR spectroscopic analysis.
The target is the same in series [3]. Briefly: Binding affinity to HuR (unknown origin) assessed as absolute STD percentage for ring C moiety by 1H-STD-NMR spectroscopic analysis.
The nature of series [4]: Solubility of the compound. In kind it is physicochemical.
The target of series [5] is ELAV-like protein 1 (Homo sapiens) (UniProt Q15717). Briefly: Binding affinity to HuR (unknown origin) assessed as absolute STD percentage for isopropyl moiety by 1H-STD-NMR spectroscopic analysis.
The target is the same in series [6]. The series is described as follows: Binding affinity to HuR (unknown origin) assessed as absolute STD percentage for protons of the amino chain (H14, H15, and H16) by 1H-STD-NMR spectroscopic analysis.
Series [7] has the same target. The series is described as follows: Binding affinity to HuR (unknown origin) assessed as absolute STD percentage for pyridone moiety by 1H-STD-NMR spectroscopic analysis.

Active and inactive are the calls of the source. The rule behind the calls is not given here.

Chain of ELAV-like protein 1 (Homo sapiens) (Q15717 whole entry): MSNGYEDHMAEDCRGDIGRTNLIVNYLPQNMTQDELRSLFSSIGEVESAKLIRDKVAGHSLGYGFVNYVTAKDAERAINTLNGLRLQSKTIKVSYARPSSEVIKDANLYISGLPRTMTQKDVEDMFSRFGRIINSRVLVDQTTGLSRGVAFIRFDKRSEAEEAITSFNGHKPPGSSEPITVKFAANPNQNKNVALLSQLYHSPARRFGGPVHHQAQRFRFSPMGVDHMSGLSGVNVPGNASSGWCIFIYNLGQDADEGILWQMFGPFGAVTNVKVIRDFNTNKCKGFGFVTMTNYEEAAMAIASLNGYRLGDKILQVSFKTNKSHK

Consider `O=C(c1ccc(O)cc1)N(CCc1cc(O)cc(O)c1)Cc1cccc(Cl)c1`, for which the Activity in series [1] was found to be 0.36%; in series [2] it was 0.4%; in series [3], 0.25%.

`COc1cc(OC)cc(-c2nc3sccn3c2NCCNC(=O)OCc2ccccc2)c1.Cl`: the solubility result in series [4] is reported as “Insoluble”.

`COc1cc(OC)cc([C@@H]2[C@@H](C(=O)NCCNCc3ccccc3)CCC(=O)N2CC(C)C)c1` (racemic): the Activity in series [5] stood at 0.4%; in series [1], 0.03%; in series [2], 0.2%. Besides, the result in series [6] was inactive.

Regarding `CC(C)Cn1cnc(-c2cccc(Oc3ccccc3)c2)c1-c1ccc(=O)[nH]c1`, the Activity is 0.3% in series [5] and 1.2% in series [7].
